Assays:
rat [1] = assay: concentration in heart/thymus after dosing; settings: dosed: [3H]benzo(a)pyrene, 1 ug/kg, inhalation, male, Sprague Dawley, radiolabel
rat [2] = assay: concentration in stomach after dosing; settings: dosed: [3H]benzo(a)pyrene, 1 ug/kg, inhalation, male, Sprague Dawley, radiolabel
rat [3] = assay: concentration in lung after dosing; settings: dosed: [3H]benzo(a)pyrene, 1 ug/kg, inhalation, male, Sprague Dawley, radiolabel
rat [4] = assay: concentration in testes after dosing; settings: dosed: [3H]benzo(a)pyrene, 1 ug/kg, inhalation, male, Sprague Dawley, radiolabel
rat [5] = assay: concentration in spleen after dosing; settings: dosed: [3H]benzo(a)pyrene, 1 ug/kg, inhalation, male, Sprague Dawley, radiolabel
rat [6] = assay: concentration in liver after dosing; settings: dosed: [3H]benzo(a)pyrene, 1 ug/kg, inhalation, male, Sprague Dawley, radiolabel
rat [7] = assay: concentration in urine after dosing; settings: dosed: [3H]benzo(a)pyrene, 1 ug/kg, inhalation, male, Sprague Dawley, radiolabel
rat [8] = assay: concentration in blood after dosing; settings: male
rat [9] = assay: concentration in kidney after dosing; settings: dosed: [3H]benzo(a)pyrene, 1 ug/kg, inhalation, male, Sprague Dawley, radiolabel
rat [10] = assay: concentration in body after dosing; settings: dosed: [3H]benzo(a)pyrene, 1 ug/kg, inhalation, male, Sprague Dawley, radiolabel
rat [11] = assay: concentration in intestines after dosing; settings: dosed: [3H]benzo(a)pyrene, 1 ug/kg, inhalation, male, Sprague Dawley, radiolabel
rat [12] = assay: concentration in feces after dosing; settings: dosed: [3H]benzo(a)pyrene, 1 ug/kg, inhalation, male, Sprague Dawley, radiolabel
Rat [13] = settings: dosed: dibromoacetic acid, 40 mg/kg, oral, Male, F344
Rat [14] = settings: dosed: dibromoacetic acid, 100 mg/kg, oral, Male, F344
Rat [15] = settings: dosed: dibromoacetic acid, 100 mg/kg, oral, Male, F344; remark: listed apart in the source
Rat [16] = settings: dosed: dibromoacetic acid, 40 mg/kg, oral, Male, F344; remark: listed apart in the source
Rat [17] = settings: dosed: dibromoacetic acid, 40 mg/kg, oral, Male, F344; remark: listed apart in the source
Rat [18] = settings: dosed: dibromoacetic acid, 100 mg/kg, oral, Male, F344; remark: listed apart in the source
rat [19] = assay: concentration in blood after dosing; settings: dosed: hexane, 60000 ppm, dermal, duration: 4 hr, male, F344
rat [20] = assay: concentration in blood after dosing; settings: dosed: hexane, 60000 ppm, dermal, duration: 4 hr, male, F344; remark: listed apart in the source
rat [21] = assay: concentration in blood after dosing; settings: dosed: hexane, 60000 ppm, dermal, duration: 4 hr, male, F344; remark: listed apart in the source
rat [22] = assay: concentration in blood after dosing; settings: dosed: hexane, 60000 ppm, dermal, duration: 4 hr, male, F344; remark: listed apart in the source
rat [23] = assay: concentration in blood after dosing; settings: dosed: perchloroethylene, 12500 ppm, dermal, duration: 4 hr, male, F344
rat [24] = assay: concentration in blood after dosing; settings: dosed: perchloroethylene, 12500 ppm, dermal, duration: 4 hr, male, F344; remark: listed apart in the source
rat [25] = assay: concentration in blood after dosing; settings: dosed: perchloroethylene, 12500 ppm, dermal, duration: 4 hr, male, F344; remark: listed apart in the source

[3H][3H] [[3H] radioactivity]
Settings	concentration in body [µg/kg]	concentration in feces [µg/kg]	concentration in heart/thymus [µg/kg]	concentration in intestines [µg/kg]	concentration in kidney [µg/kg]	concentration in liver [µg/kg]	concentration in lung [µg/kg]	concentration in spleen [µg/kg]	concentration in stomach [µg/kg]	concentration in testes [µg/kg]	concentration in urine [µg/kg]
rat [1], 0.25 h	–	–	0.008	–	–	–	–	–	–	–	–
rat [1], 0.5 h	–	–	0.005	–	–	–	–	–	–	–	–
rat [1], 1 h	–	–	0.005	–	–	–	–	–	–	–	–
rat [1], 1.5 h	–	–	0.005	–	–	–	–	–	–	–	–
rat [1], 2 h	–	–	0.006	–	–	–	–	–	–	–	–
rat [1], 3 h	–	–	0.005	–	–	–	–	–	–	–	–
rat [1], 4 h	–	–	0.004	–	–	–	–	–	–	–	–
rat [1], 5 min	–	–	0.009	–	–	–	–	–	–	–	–
rat [1], 6 h	–	–	0.004	–	–	–	–	–	–	–	–
rat [1], 10 min	–	–	0.016	–	–	–	–	–	–	–	–
rat [2], 0.25 h	–	–	–	–	–	–	–	–	0.007	–	–
rat [2], 0.5 h	–	–	–	–	–	–	–	–	0.012	–	–
rat [2], 1 h	–	–	–	–	–	–	–	–	0.046	–	–
rat [2], 1.5 h	–	–	–	–	–	–	–	–	0.037	–	–
rat [2], 2 h	–	–	–	–	–	–	–	–	0.069	–	–
rat [2], 3 h	–	–	–	–	–	–	–	–	0.05	–	–
rat [2], 4 h	–	–	–	–	–	–	–	–	0.04	–	–
rat [2], 5 min	–	–	–	–	–	–	–	–	0.003	–	–
rat [2], 6 h	–	–	–	–	–	–	–	–	0.058	–	–
rat [2], 10 min	–	–	–	–	–	–	–	–	0.007	–	–
rat [3], 0.25 h	–	–	–	–	–	–	0.322	–	–	–	–
rat [3], 0.5 h	–	–	–	–	–	–	0.204	–	–	–	–
rat [3], 1 h	–	–	–	–	–	–	0.154	–	–	–	–
rat [3], 1.5 h	–	–	–	–	–	–	0.113	–	–	–	–
rat [3], 2 h	–	–	–	–	–	–	0.11	–	–	–	–
rat [3], 3 h	–	–	–	–	–	–	0.068	–	–	–	–
rat [3], 4 h	–	–	–	–	–	–	0.035	–	–	–	–
rat [3], 5 min	–	–	–	–	–	–	0.595	–	–	–	–
rat [3], 6 h	–	–	–	–	–	–	0.052	–	–	–	–
rat [3], 10 min	–	–	–	–	–	–	0.419	–	–	–	–
rat [4], 0.25 h	–	–	–	–	–	–	–	–	–	0.007	–
rat [4], 0.5 h	–	–	–	–	–	–	–	–	–	0.006	–
rat [4], 1 h	–	–	–	–	–	–	–	–	–	0.011	–
rat [4], 1.5 h	–	–	–	–	–	–	–	–	–	0.013	–
rat [4], 2 h	–	–	–	–	–	–	–	–	–	0.011	–
rat [4], 3 h	–	–	–	–	–	–	–	–	–	0.008	–
rat [4], 4 h	–	–	–	–	–	–	–	–	–	0.009	–
rat [4], 5 min	–	–	–	–	–	–	–	–	–	0.004	–
rat [4], 6 h	–	–	–	–	–	–	–	–	–	0.008	–
rat [4], 10 min	–	–	–	–	–	–	–	–	–	0.005	–
rat [5], 0.25 h	–	–	–	–	–	–	–	0.004	–	–	–
rat [5], 0.5 h	–	–	–	–	–	–	–	0.002	–	–	–
rat [5], 1 h	–	–	–	–	–	–	–	0.003	–	–	–
rat [5], 1.5 h	–	–	–	–	–	–	–	0.002	–	–	–
rat [5], 2 h	–	–	–	–	–	–	–	0.002	–	–	–
rat [5], 3 h	–	–	–	–	–	–	–	0.002	–	–	–
rat [5], 4 h	–	–	–	–	–	–	–	0.001	–	–	–
rat [5], 5 min	–	–	–	–	–	–	–	0.005	–	–	–
rat [5], 6 h	–	–	–	–	–	–	–	0.002	–	–	–
rat [5], 10 min	–	–	–	–	–	–	–	0.003	–	–	–
rat [6], 0.25 h	–	–	–	–	–	0.196	–	–	–	–	–
rat [6], 0.5 h	–	–	–	–	–	0.186	–	–	–	–	–
rat [6], 1 h	–	–	–	–	–	0.158	–	–	–	–	–
rat [6], 1.5 h	–	–	–	–	–	0.171	–	–	–	–	–
rat [6], 2 h	–	–	–	–	–	0.132	–	–	–	–	–
rat [6], 3 h	–	–	–	–	–	0.083	–	–	–	–	–
rat [6], 4 h	–	–	–	–	–	0.067	–	–	–	–	–
rat [6], 5 min	–	–	–	–	–	0.125	–	–	–	–	–
rat [6], 6 h	–	–	–	–	–	0.046	–	–	–	–	–
rat [6], 10 min	–	–	–	–	–	0.208	–	–	–	–	–
rat [7], 0.25 h	–	–	–	–	–	–	–	–	–	–	0.002
rat [7], 0.5 h	–	–	–	–	–	–	–	–	–	–	0.001
rat [7], 1 h	–	–	–	–	–	–	–	–	–	–	0.003
rat [7], 1.5 h	–	–	–	–	–	–	–	–	–	–	0.008
rat [7], 2 h	–	–	–	–	–	–	–	–	–	–	0.011
rat [7], 3 h	–	–	–	–	–	–	–	–	–	–	0.012
rat [7], 4 h	–	–	–	–	–	–	–	–	–	–	0.016
rat [7], 6 h	–	–	–	–	–	–	–	–	–	–	0.022
rat [7], 10 min	–	–	–	–	–	–	–	–	–	–	0.0001
rat [9], 0.25 h	–	–	–	–	0.019	–	–	–	–	–	–
rat [9], 0.5 h	–	–	–	–	0.014	–	–	–	–	–	–
rat [9], 1 h	–	–	–	–	0.022	–	–	–	–	–	–
rat [9], 1.5 h	–	–	–	–	0.024	–	–	–	–	–	–
rat [9], 2 h	–	–	–	–	0.02	–	–	–	–	–	–
rat [9], 3 h	–	–	–	–	0.018	–	–	–	–	–	–
rat [9], 4 h	–	–	–	–	0.017	–	–	–	–	–	–
rat [9], 5 min	–	–	–	–	0.011	–	–	–	–	–	–
rat [9], 6 h	–	–	–	–	0.02	–	–	–	–	–	–
rat [9], 10 min	–	–	–	–	0.019	–	–	–	–	–	–
rat [10], 0.25 h	0.23	–	–	–	–	–	–	–	–	–	–
rat [10], 0.5 h	0.263	–	–	–	–	–	–	–	–	–	–
rat [10], 1 h	0.271	–	–	–	–	–	–	–	–	–	–
rat [10], 1.5 h	0.25	–	–	–	–	–	–	–	–	–	–
rat [10], 2 h	0.223	–	–	–	–	–	–	–	–	–	–
rat [10], 3 h	0.214	–	–	–	–	–	–	–	–	–	–
rat [10], 4 h	0.21	–	–	–	–	–	–	–	–	–	–
rat [10], 5 min	0.144	–	–	–	–	–	–	–	–	–	–
rat [10], 6 h	0.215	–	–	–	–	–	–	–	–	–	–
rat [10], 10 min	0.264	–	–	–	–	–	–	–	–	–	–
rat [11], 0.25 h	–	–	–	0.049	–	–	–	–	–	–	–
rat [11], 0.5 h	–	–	–	0.052	–	–	–	–	–	–	–
rat [11], 1 h	–	–	–	0.099	–	–	–	–	–	–	–
rat [11], 1.5 h	–	–	–	0.126	–	–	–	–	–	–	–
rat [11], 2 h	–	–	–	0.11	–	–	–	–	–	–	–
rat [11], 3 h	–	–	–	0.123	–	–	–	–	–	–	–
rat [11], 4 h	–	–	–	0.133	–	–	–	–	–	–	–
rat [11], 5 min	–	–	–	0.019	–	–	–	–	–	–	–
rat [11], 6 h	–	–	–	0.149	–	–	–	–	–	–	–
rat [11], 10 min	–	–	–	0.033	–	–	–	–	–	–	–
rat [12], 0.25 h	–	0.029	–	–	–	–	–	–	–	–	–
rat [12], 0.5 h	–	0.033	–	–	–	–	–	–	–	–	–
rat [12], 1 h	–	0.143	–	–	–	–	–	–	–	–	–
rat [12], 1.5 h	–	0.171	–	–	–	–	–	–	–	–	–
rat [12], 2 h	–	0.168	–	–	–	–	–	–	–	–	–
rat [12], 3 h	–	0.256	–	–	–	–	–	–	–	–	–
rat [12], 4 h	–	0.301	–	–	–	–	–	–	–	–	–
rat [12], 5 min	–	0.005	–	–	–	–	–	–	–	–	–
rat [12], 6 h	–	0.447	–	–	–	–	–	–	–	–	–
rat [12], 10 min	–	0.008	–	–	–	–	–	–	–	–	–

rat [8], dosed: [3H]benzo(a)pyrene, 1 ug/kg, inhalation, Sprague Dawley, radiolabel
Settings	concentration in blood [µg/kg]
0.25 h	0.038
0.5 h	0.016
1 h	0.016
1.5 h	0.021
2 h	0.019
3 h	0.011
4 h	0.008
5 min	0.039
6 h	0.017
10 min	0.03

O=C(O)C(Br)Br [dibromoacetic acid]
amount in urine after dosing [µg]
Settings	Rat [13]	Rat [14]	Rat [15]	Rat [16]	Rat [17]	Rat [18]
2 h	0.735	17.7	–	–	–	–
4 h	–	54.6	61.7	8.7	–	55.8
8 h	–	44.1	–	3.52	11.7	–
24 h	4.47	19.1	37.7	3.52	1.52	81
48 h	–	4.62	2.24	–	–	5.03

CCCCCC [hexane]
concentration in blood [ng/mL]
Settings	0.5 h	1 h	2 h	3 h	4 h
rat [19]	–	406	812	796	200
rat [20]	1500	31.2	–	304	804
rat [21]	–	708	112	414	–
rat [22]	1240	804	1100	1300	999

rat [8], dosed: hexane, 60000 ppm, dermal, duration: 4 hr, F344
Settings	concentration in blood [ng/mL]
0.5 h	606
1 h	903
2 h	500

ClC(Cl)=C(Cl)Cl [perchloroethylene]
concentration in blood [ng/mL]
Settings	0.5 h	1 h	2 h	3 h	4 h
rat [23]	17000	45000	39600	31600	42600
rat [24]	6940	32300	29900	17500	32300
rat [25]	3610	15200	19600	13900	29200

rat [8], dosed: perchloroethylene, 12500 ppm, dermal, duration: 4 hr, F344
Settings	concentration in blood [ng/mL]
0.5 h	20600
1 h	21100
2 h	21500
3 h	25200
4 h	29200

— EPA's CvTdb concentration-time database
